This is an account of results in ChEMBL document CHEMBL2046292, “The macrocycle of leinamycin imparts hydrolytic stability to the thiol-sensing 1,2-dithiolan-3-one 1-oxide unit of the natural product” (Bioorg Med Chem Lett, 2012).

Holding throughout (format): physicochemical
Data set [1] in a line: Half life of the compound at 70 uM in MOPS aqueous buffer (250 mM, pH 7.0) containing MeCN (25% v/v) at 24 degC by HPLC analysis. The settings on record: pH 7, 70 µM.
A short description of data set [2]: Half life of the compound at 70 uM in MOPS aqueous buffer (300 mM, pH 7.0) containing MeCN (25% v/v) at 24 degC in presence of 700 uM GSH by HPLC analysis. The following applies: pH 7, 70 µM.
A short description of data set [3]: Half life of the compound at 100 uM in HEPES buffer (250 mM, pH 7.0) at 24 degC containing no organic solvent.
Data set [4] in a line: Half life of the compound in sodium phosphate buffer (10 mM, pH 7.0) at 37 degC containing methanol (10% v/v).

For the compound `CC1(C)[S+]([O-])SC(=O)[C@@]1(C)O` (stereo partly drawn), the t1/2 in data set [1] turned out to be 0.883 h; in data set [2], 0.0467 h.

In the case of `CC1(C)[S+]([O-])SC(=O)[C@]1(C)O` (stereo partly drawn), the results for the t1/2 in data set [1] and in data set [2] were 1.87 h and 0.0633 h, respectively.

One may read the half-life as how long it takes for the measured level to halve. A lower half-life goes with fast loss. As for `C/C1=C\[C@@H](O)C(=O)/C=C/C=C\c2csc(n2)[C@@H](C)NC(=O)C[C@@]2(CC1)[S+]([O-])SC(=O)[C@]2(C)O` (stereo partly drawn) [LEINAMYCIN], the t1/2 worked out at 27 h in data set [1] and 0.173 h in data set [2]. In addition, in data set [3], the half-life at 100 µM was 16.1 h. In data set [4], this compound gave a half-life of 8 h.
